Experimental data published in ChEMBL document CHEMBL1201862, “PubChem BioAssay data set” (2004).
Values belong to the compound of their own block, whether it stands above or below them. The source made the active and inactive calls.

Assays:
Bcl-2-like protein 10 = Bcl-2-like protein 10 (Homo sapiens, UniProt Q9HD36); assay: displacers of TR3 peptide from Bcl-B, primary screen, selectivity assay for Bfl-1 inhibitor project, biochemical, fluorescence polarization, FITC-TR3 peptide (AID 748);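 note: fluorescence polarization from a fluorescein-labelled TR3 peptide binding purified Bcl-B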
HEK293 [1] = assay: NOD1 signaling inhibitors, primary screen, cell-based, luminescence, uHTS (AID 1578); assay type: functional; settings: Homo sapiens
HEK293 [2] = assay: cells; assay type: functional, cell-based; settings: Homo sapiens
HEK293 [3] = assay: cells; assay type: functional, cell-based; settings: Homo sapiens; remark: listed apart in the source
[4] = target: T1, Nucleotide-binding oligomerization domain-containing protein 2 (Homo sapiens, UniProt Q9HC29); assay: NOD2 signaling inhibitors, cell-based, luminescence, uHTS, HEK293 (AID 1566); assay type: functional
HEK293 [5] = assay: NOD2 signaling inhibitors in MDP-stimulated cells, cell-based, uHTS, luminescence (AID 2001); assay type: functional; settings: Homo sapiens
HEK293 [6] = assay: cells; assay type: functional, cell-based; settings: Homo sapiens; remark: listed apart in the source
Tumor necrosis factor = Tumor necrosis factor (Homo sapiens, UniProt P01375); assay: TNFa-triggered NF-kB activation inhibitors, SAR follow-up, cell-based, revised (AID 2337); assay type: functional
[7] = target: T2, Nucleotide-binding oligomerization domain-containing protein 1 (Homo sapiens, UniProt Q9Y239); assay: NOD1 signaling inhibitors, SAR follow-up, revised (AID 2333); assay type: functional
T2 sequence (Q9Y239 whole entry): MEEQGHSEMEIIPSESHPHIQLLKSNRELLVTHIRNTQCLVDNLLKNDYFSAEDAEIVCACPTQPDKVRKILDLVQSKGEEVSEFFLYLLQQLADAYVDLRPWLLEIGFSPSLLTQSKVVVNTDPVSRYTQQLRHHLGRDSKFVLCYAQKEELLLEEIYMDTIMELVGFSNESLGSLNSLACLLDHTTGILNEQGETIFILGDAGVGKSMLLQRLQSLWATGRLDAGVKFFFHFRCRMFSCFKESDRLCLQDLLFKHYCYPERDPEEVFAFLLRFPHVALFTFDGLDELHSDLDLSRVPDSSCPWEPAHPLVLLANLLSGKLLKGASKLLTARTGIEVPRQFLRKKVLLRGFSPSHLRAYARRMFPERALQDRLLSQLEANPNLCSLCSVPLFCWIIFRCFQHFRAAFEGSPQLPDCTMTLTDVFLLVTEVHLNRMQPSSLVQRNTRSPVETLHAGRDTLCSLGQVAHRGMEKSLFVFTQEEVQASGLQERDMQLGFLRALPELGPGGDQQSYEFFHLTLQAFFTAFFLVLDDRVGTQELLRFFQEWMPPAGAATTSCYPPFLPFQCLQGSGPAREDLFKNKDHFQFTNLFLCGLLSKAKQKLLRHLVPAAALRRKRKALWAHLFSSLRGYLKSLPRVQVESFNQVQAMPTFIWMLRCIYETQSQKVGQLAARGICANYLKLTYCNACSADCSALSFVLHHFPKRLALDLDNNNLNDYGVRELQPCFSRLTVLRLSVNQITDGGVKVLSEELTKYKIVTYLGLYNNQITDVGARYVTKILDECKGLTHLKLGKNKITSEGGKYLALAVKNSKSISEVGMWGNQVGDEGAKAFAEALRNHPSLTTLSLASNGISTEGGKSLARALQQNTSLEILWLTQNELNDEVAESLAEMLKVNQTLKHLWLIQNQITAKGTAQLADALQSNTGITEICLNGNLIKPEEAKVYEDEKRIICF

[8] = target: T1, Nucleotide-binding oligomerization domain-containing protein 2; assay: PubChem AID 2334; assay type: functional
[9] = target: T3, Small ubiquitin-related modifier 1 (Homo sapiens, UniProt P63165); assay: inhibitors of SUMO1 peptide binding, dose response, biochemical, fluorescence polarization, uHTS hits (AID 624382); assay type: functional; settings: read-out: IC50_Mean
[10] = target: T3, Small ubiquitin-related modifier 1; assay: inhibitors of SUMO1 partner interactions, dose response, biochemical, FRET (AID 624383); assay type: functional; settings: read-out: IC50_Mean
HEK293 [11] = assay: cells; settings: Homo sapiens
[12] = target: Peroxisome proliferator-activated receptor gamma/Nuclear receptor coactivator 1 (Homo sapiens, UniProt P37231); assay: (§1) TR-FRET dose response biochemical High Throughput Screening assay for agonists of the steroid receptor coactivator 1 (SRC-1) recruitment by the peroxisome proliferator-activated receptor gamma (PPAR gamma): non-selective agonists. [Related pubchem assays (depositor defined):AID1300, AID1808, AID504735, AID631]; assay type: protein assay
[13] = target: Peroxisome proliferator-activated receptor gamma/Nuclear receptor coactivator 3 (Homo sapiens, UniProt P37231); assay: as §1, with “3 (SRC-3)” for “1 (SRC-1)”, “assays: 1301 (Confirmation screen.), 1048 (Primary screen.)]” for “assays (depositor defined):AID1300, AID1808, AID504735, AID631]”; assay type: functional
[14] = target: Peroxisome proliferator-activated receptor gamma/Nuclear receptor coactivator 2 (Homo sapiens, UniProt P37231); assay: TR-FRET dose response biochemical High Throughput Screening assay for agonists of the steroid receptor coactivator 2 (SRC-2) recruitment by the peroxisome proliferator-activated receptor gamma (PPAR gamma): non-selective agonists. [Related pubchem assays: 1297, 1032 ]; assay type: functional
[15] = cytotoxicity in HEK-293T cells, dose response, cytotoxicity control for BCR NF-kB inhibitor project, luminescence, B-cell screen hits (AID 489021); assay type: functional, cell-based;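 note: HEK-293T cells carrying an NF-kB luciferase reporter; cells exposed to compound for about 14 hours before viability readout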
HEK293 [16] = assay: inhibitors of LMP1-driven NF-kB reporter, dose response, cell-based, HEK293, luciferase, cherry-pick (AID 588343); assay type: functional; settings: Homo sapiens
X-box-binding protein 1 = X-box-binding protein 1 (Homo sapiens, UniProt P17861); assay type: functional, Cricetulus griseus;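 note: confirmatory dose-response counter-screen serving a CHOP assay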

T3 sequence (P63165 whole entry): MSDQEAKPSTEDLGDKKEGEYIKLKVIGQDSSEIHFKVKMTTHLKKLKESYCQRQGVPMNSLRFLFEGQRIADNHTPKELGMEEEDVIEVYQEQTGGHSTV
T1 sequence (Q9HC29 whole entry, the tested form may be a part): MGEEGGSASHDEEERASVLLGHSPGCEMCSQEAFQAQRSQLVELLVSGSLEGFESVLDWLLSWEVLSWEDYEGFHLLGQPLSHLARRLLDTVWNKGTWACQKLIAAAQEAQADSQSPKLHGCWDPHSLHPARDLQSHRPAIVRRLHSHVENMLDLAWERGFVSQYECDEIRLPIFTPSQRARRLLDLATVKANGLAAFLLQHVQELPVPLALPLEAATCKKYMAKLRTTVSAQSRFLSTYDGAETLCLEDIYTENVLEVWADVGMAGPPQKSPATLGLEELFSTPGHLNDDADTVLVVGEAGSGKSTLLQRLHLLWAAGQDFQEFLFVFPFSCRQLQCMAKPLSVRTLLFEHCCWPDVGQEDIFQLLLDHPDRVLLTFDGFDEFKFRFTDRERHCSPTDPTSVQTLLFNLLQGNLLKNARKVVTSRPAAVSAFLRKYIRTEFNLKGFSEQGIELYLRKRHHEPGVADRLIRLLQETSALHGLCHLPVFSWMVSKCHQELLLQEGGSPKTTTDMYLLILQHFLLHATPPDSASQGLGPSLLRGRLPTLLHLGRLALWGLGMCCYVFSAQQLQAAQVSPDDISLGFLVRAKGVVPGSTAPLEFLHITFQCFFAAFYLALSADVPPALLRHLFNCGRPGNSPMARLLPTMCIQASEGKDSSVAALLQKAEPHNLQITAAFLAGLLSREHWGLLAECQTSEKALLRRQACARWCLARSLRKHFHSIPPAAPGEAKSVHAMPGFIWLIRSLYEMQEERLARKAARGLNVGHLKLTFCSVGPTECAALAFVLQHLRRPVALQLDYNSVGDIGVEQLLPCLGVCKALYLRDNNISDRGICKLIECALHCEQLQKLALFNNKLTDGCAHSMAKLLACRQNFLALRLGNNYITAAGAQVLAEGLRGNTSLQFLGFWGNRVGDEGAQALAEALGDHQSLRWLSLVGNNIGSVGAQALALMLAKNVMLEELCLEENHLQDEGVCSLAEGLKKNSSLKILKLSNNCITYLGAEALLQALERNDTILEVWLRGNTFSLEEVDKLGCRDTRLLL
Chain of Peroxisome proliferator-activated receptor gamma/Nuclear receptor coactivator 1 (P37231 whole entry): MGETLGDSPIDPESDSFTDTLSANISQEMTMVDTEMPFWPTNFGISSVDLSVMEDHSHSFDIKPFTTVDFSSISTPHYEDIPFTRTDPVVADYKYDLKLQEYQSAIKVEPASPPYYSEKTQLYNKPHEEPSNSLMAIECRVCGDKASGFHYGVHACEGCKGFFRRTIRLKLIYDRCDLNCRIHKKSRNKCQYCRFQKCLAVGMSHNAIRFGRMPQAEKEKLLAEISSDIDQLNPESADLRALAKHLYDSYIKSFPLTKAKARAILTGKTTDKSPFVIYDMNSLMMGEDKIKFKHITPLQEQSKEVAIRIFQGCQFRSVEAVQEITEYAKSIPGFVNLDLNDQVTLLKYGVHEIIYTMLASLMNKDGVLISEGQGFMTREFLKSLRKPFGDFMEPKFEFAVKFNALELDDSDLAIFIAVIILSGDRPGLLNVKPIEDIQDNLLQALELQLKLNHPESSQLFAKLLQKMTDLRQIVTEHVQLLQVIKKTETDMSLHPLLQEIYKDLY
Chain of Peroxisome proliferator-activated receptor gamma/Nuclear receptor coactivator 1 (Q15788 whole entry, further chain): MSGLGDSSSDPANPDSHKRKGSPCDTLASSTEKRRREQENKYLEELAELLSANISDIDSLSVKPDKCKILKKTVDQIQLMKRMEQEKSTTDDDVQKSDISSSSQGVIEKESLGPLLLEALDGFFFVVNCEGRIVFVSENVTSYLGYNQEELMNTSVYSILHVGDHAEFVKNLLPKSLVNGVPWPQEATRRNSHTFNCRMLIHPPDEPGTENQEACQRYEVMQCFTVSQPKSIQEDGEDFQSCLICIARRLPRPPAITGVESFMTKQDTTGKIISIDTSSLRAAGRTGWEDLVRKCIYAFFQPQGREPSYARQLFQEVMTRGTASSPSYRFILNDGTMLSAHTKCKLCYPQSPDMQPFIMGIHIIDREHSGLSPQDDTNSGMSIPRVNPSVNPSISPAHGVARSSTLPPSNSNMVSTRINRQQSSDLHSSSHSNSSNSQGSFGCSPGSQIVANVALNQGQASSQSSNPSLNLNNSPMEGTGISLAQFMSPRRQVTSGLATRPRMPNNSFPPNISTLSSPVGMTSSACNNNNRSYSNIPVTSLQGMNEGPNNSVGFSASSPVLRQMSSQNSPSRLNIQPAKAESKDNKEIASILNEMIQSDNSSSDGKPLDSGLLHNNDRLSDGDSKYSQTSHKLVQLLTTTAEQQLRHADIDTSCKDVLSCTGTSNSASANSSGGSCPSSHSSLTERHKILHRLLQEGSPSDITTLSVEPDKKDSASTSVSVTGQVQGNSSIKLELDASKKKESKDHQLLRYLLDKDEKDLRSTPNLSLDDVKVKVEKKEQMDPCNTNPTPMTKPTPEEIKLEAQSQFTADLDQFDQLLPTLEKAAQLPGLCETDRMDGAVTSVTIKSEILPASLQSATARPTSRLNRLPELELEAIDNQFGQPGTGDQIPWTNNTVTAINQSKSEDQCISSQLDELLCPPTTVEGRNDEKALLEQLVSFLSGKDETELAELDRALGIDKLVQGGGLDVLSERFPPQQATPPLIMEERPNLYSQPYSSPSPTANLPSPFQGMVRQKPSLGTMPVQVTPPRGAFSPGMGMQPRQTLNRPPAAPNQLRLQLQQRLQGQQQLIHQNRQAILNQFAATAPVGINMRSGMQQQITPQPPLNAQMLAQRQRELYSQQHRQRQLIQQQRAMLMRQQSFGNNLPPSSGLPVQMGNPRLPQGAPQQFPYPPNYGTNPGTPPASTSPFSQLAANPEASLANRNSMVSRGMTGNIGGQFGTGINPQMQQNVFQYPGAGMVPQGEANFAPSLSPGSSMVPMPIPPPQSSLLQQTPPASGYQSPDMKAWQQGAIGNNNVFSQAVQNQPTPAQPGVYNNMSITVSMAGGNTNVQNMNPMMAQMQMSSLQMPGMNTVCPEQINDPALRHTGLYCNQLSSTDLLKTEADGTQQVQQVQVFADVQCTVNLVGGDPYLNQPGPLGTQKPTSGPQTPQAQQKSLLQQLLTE
Chain of Peroxisome proliferator-activated receptor gamma/Nuclear receptor coactivator 2 (P37231 whole entry): as the sequence (P37231 whole entry) above
Chain of Peroxisome proliferator-activated receptor gamma/Nuclear receptor coactivator 2 (Q15596 whole entry, further chain): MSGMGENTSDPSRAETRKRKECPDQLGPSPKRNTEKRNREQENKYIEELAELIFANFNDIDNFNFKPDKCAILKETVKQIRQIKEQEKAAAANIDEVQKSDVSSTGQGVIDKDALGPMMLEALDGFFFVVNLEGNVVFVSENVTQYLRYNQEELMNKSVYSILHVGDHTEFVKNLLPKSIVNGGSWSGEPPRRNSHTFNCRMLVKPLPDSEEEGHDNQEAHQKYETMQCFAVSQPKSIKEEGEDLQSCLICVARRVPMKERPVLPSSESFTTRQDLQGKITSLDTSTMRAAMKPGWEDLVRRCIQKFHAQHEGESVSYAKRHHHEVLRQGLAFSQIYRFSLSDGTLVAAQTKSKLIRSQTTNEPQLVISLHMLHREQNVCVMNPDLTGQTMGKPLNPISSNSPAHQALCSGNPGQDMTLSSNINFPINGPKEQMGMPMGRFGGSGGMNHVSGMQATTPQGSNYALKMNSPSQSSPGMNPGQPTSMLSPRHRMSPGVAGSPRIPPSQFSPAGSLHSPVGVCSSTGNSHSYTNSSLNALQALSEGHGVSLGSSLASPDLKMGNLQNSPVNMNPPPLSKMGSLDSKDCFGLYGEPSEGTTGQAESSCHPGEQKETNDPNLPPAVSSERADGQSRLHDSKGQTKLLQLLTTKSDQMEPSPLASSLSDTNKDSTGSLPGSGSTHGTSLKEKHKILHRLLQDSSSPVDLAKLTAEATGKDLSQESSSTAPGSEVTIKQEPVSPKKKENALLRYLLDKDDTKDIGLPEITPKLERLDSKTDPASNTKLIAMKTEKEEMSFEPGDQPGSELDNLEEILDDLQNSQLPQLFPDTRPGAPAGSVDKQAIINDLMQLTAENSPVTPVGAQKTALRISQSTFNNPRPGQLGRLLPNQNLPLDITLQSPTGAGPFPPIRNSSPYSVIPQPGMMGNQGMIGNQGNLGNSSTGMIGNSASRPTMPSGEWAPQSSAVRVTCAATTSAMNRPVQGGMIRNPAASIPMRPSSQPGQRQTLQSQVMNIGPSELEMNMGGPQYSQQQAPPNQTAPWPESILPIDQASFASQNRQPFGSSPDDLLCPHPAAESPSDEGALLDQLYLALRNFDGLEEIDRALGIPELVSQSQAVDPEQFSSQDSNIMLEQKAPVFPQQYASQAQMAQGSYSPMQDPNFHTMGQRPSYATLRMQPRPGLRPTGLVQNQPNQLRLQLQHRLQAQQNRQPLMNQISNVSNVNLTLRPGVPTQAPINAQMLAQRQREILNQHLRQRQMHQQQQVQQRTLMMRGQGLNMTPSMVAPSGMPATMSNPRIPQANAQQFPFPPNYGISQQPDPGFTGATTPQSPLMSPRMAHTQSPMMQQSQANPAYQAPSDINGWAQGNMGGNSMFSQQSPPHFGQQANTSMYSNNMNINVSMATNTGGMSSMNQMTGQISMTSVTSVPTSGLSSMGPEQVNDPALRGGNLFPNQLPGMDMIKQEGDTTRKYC

IC50 (Bcl-2-like protein 10): > 100 µM (inactive)
SMILES: O=C1c2ccccc2C(=O)N1CC#CCN1CCN(C2CCCCC2)CC1

SMILES: Cc1oc2c(C)c3oc(=O)c(CCC(=O)O)c(C)c3cc2c1-c1ccccc1
EC50 (HEK293 [1]): 7.66 µM (active)
IC50 (HEK293 [2]): > 20 µM (inactive)
IC50 (HEK293 [3]): > 20 µM (inactive)
EC50 [4]: 3.67 µM (active)
IC50 (HEK293 [5]): 14.8 µM (inactive)
IC50 (HEK293 [6]): > 20 µM (inactive)
IC50 (Tumor necrosis factor): 5.03 µM (active)
IC50 [7]: 5.43 µM (active)
IC50 [8]: 5.03 µM (active)
IC50 [9]: > 66.6 µM (inactive)
IC50 [10]: 13.4 µM (active)
IC50 (HEK293 [11]): > 20 µM (inactive)

SMILES: O=C(Cc1cccc2ccccc12)Nc1ccc(-c2cc3ccccc3oc2=O)cc1
EC50 [12]: 22.7 µM (inactive)
EC50 [13]: > 79.4 µM (not active)
EC50 [14]: 22 µM (not active)
IC50 [15]: > 80 µM (inactive)
AC50 (HEK293 [16]): 587 nM (active)

Absolute IC50 (XBP1) (X-box-binding protein 1): 10 µM
SMILES: CCOc1ccc(-c2[nH]nc(C)c2Oc2ccc(OC)cc2)c(O)c1
